*1 amine or outer side, *2 acyl side, *3 side chain or, on linkers, in order; H or OH if unused. Where a SMILES comes first, the peptide text is derived from it. Side-chain parts run from the residue outwards. The star is where a group is joined. C18 diacid = O=C(O)CCCCCCCCCCCCCCCCC(=O)*; γGlu = O=C(O)[C@H](CCC(=O)[*:2])N[*:1]; Isovaleryl = CC(C)CC(=O)*; Ahx = NCCCCCC(=O)O
Legend:
[1] = molecular target: T1, Human Neuropeptide Y2 Receptor (Homo sapiens, UniProt P49146); test: Radioligand binding competition assay (RLB); conditions: Table 3, 125I-PYY(1-36) competition; read-out: Ki
T1 construct: purchased CHEMICON HTS066M
T1 sequence (P49146 1-381): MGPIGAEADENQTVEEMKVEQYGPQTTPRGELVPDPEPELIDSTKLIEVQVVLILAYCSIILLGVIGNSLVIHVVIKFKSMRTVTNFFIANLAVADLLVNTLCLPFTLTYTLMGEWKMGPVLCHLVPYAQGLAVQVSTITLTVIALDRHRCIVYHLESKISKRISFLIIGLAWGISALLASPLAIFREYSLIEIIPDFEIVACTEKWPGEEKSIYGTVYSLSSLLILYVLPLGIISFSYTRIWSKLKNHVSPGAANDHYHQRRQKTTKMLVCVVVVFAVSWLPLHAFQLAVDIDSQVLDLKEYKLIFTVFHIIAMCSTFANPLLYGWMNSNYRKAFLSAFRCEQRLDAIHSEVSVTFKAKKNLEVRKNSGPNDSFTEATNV
Procedure, shortened: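 Filtration competition binding on membranes from cells expressing the receptor, 0.5 μg protein/well, in 50 mM HEPES, 5 mM MgCl2, 1 mM CaCl2, pH 7.4, with 0.2% ovalbumin. Incubation ran 2 h at room temperature, followed by GF/C filtration and scintillation counting. IC50 came from nonlinear sigmoidal fits.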

Solubility determination = conditions: for Sol6: pH 6; for Sol7: pH 7
Procedure, shortened: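 Sample: TFA-salt peptide at 10 mg/ml target in 0.1 M Na diphosphate, pH 6.4 or 7.0, shaken 2 h RT, filtered, diluted to 1 mg/ml.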

| Ki [1] [nM] | Sol6 (Solubility determination) [mg/mL] | Sol7 (Solubility determination) [mg/mL] | SMILES |
| --- | --- | --- | --- |
| 2.77 | 8.6 | 8.0 | CC(C)CC(=O)N[C@@H](C)C(=O)N1CCC[C@H]1C(=O)N[C@@H](CCC(=O)O)C(=O)N[C@@H](CCCCNC(=O)CCCCCNC(=O)CC[C@H](NC(=O)CCCCCCCCCCCCCCCCC(=O)O)C(=O)O)C(=O)N1CCC[C@H]1C(=O)N[C@@H](CCC(=O)O)C(=O)N[C@@H](C)C(=O)N[C@@H](CC(=O)O)C(=O)N[C@@H](C)C(=O)N[C@@H](CO)C(=O)N[C@@H](CCC(=O)O)C(=O)N[C@@H](CCC(=O)O)C(=O)N[C@@H](CCC(=O)O)C(=O)N[C@@H](CC(C)C)C(=O)N[C@@H](CCC(N)=O)C(=O)N[C@@H](CCCNC(=N)N)C(=O)N[C@@H](Cc1ccc(O)cc1)C(=O)N[C@@H](Cc1ccc(O)cc1)C(=O)N[C@H](C(=O)N[C@@H](CO)C(=O)N[C@@H](CC(C)C)C(=O)N[C@@H](CCCNC(=N)N)C(=O)N[C@@H](Cc1c[nH]cn1)C(=O)N[C@@H](Cc1ccc(O)cc1)C(=O)N[C@@H](Cc1ccc(O)cc1)C(=O)N[C@@H](CC(N)=O)C(=O)N[C@@H](Cc1c[nH]c2ccccc12)C(=O)N[C@@H](CC(C)C)C(=O)N[C@H](C(=O)N[C@@H](CCCNC(=N)N)C(=O)N[C@@H](CCC(N)=O)C(=O)N[C@@H](CCCNC(=N)N)C(=O)N[C@@H](Cc1ccc(O)cc1)C(N)=O)[C@@H](C)O)C(C)C [Compound 108, N{alpha-4}-(3-methylbutanoyl)-N{epsilon-7}-(6-[(4S)-4-carboxy-4-(17-carboxyheptadecanamido)butanamido]hexanoyl)-[4A,7K,9E,10A,14E,18Q,22V,28Y,30W,31L]-hPYY(4-36)] |
| 5.13 | 11.0 | 11.0 | CC(C)CC(=O)N[C@@H](C)C(=O)N1CCC[C@H]1C(=O)N[C@@H](CCC(=O)O)C(=O)N[C@@H](CCCCNC(=O)CCCCCNC(=O)CC[C@H](NC(=O)CCCCCCCCCCCCCCCCC(=O)O)C(=O)O)C(=O)N1CCC[C@H]1C(=O)N[C@@H](CCC(=O)O)C(=O)N[C@@H](CCC(=O)O)C(=O)N[C@@H](CC(=O)O)C(=O)N[C@@H](C)C(=O)N[C@@H](CCC(=O)O)C(=O)N1CCC[C@H]1C(=O)N[C@@H](CCC(=O)O)C(=O)N[C@@H](CCC(=O)O)C(=O)N[C@H](C(=O)N[C@@H](CCC(N)=O)C(=O)N[C@@H](CCCNC(=N)N)C(=O)N[C@@H](Cc1ccc(O)cc1)C(=O)N[C@@H](Cc1ccc(O)cc1)C(=O)N[C@H](C(=O)N[C@@H](CO)C(=O)N[C@@H](CC(C)C)C(=O)N[C@@H](CCCNC(=N)N)C(=O)N[C@@H](Cc1c[nH]cn1)C(=O)N[C@@H](Cc1ccc(O)cc1)C(=O)N[C@@H](Cc1ccc(O)cc1)C(=O)N[C@@H](CC(N)=O)C(=O)N[C@@H](Cc1c[nH]c2ccccc12)C(=O)N[C@@H](CC(C)C)C(=O)N[C@H](C(=O)N[C@@H](CCCNC(=N)N)C(=O)N[C@@H](CCC(N)=O)C(=O)N[C@@H](CCCNC(=N)N)C(=O)N[C@@H](Cc1ccc(O)cc1)C(N)=O)[C@@H](C)O)C(C)C)[C@@H](C)O [Compound 107, N{alpha-4}-(3-methylbutanoyl)-N{epsilon-7}-(6-[(4S)-4-carboxy-4-(17-carboxyheptadecanamido)butanamido]hexanoyl)-[4A,7K,9E,13E,17T,18Q,22V,28Y,30W,31L]-hPYY(4-36)] |
| 2.28 | >10.0 | 10.0 | CC[C@H](C)[C@H](NC(=O)[C@H](CCC(=O)O)NC(=O)[C@H](CCC(=O)O)NC(=O)[C@@H]1CCCN1C(=O)[C@H](C)NC(=O)[C@H](C)NC(=O)[C@H](CC(=O)O)NC(=O)[C@H](CCC(=O)O)NC(=O)[C@H](CCC(=O)O)NC(=O)[C@@H]1CCCN1C(=O)[C@H](CCCCNC(=O)CCCCCNC(=O)CC[C@H](NC(=O)CCCCCCCCCCCCCCCCC(=O)O)C(=O)O)NC(=O)[C@H](CCC(=O)O)NC(=O)[C@@H]1CCCN1C(=O)[C@H](C)NC(=O)CC(C)C)C(=O)N[C@@H](CCC(N)=O)C(=O)N[C@@H](CCCNC(=N)N)C(=O)N[C@@H](Cc1ccc(O)cc1)C(=O)N[C@@H](Cc1ccc(O)cc1)C(=O)N[C@H](C(=O)N[C@@H](CO)C(=O)N[C@@H](CC(C)C)C(=O)N[C@@H](CCCNC(=N)N)C(=O)N[C@@H](Cc1c[nH]cn1)C(=O)N[C@@H](Cc1ccc(O)cc1)C(=O)N[C@@H](Cc1ccc(O)cc1)C(=O)N[C@@H](CC(N)=O)C(=O)N[C@@H](Cc1c[nH]c2ccccc12)C(=O)N[C@@H](CC(C)C)C(=O)N[C@H](C(=O)N[C@@H](CCCNC(=N)N)C(=O)N[C@@H](CCC(N)=O)C(=O)N[C@@H](CCCNC(=N)N)C(=O)N[C@@H](Cc1ccc(O)cc1)C(N)=O)[C@@H](C)O)C(C)C [Compound 170, N{alpha-4}-(3-methylbutanoyl)-N{epsilon-7}-(6-[(4S)-4-carboxy-4-(17-carboxyheptadecanamido)butanamido]hexanoyl)-[4A,7K,9E,13A,17I,18Q,22V,28Y,30W,31L]-hPYY(4-36)] |
| 0.49 | >10.0 | >10.0 | CC[C@H](C)[C@H](NC(=O)[C@H](CCC(=O)O)NC(=O)[C@H](CCC(=O)O)NC(=O)[C@@H]1CCCN1C(=O)[C@@H](NC(=O)[C@H](C)NC(=O)[C@H](CC(=O)O)NC(=O)[C@H](CCC(=O)O)NC(=O)[C@@H]1CCCN1C(=O)[C@@H]1CCCN1C(=O)[C@H](CCCCNC(=O)CCCCCNC(=O)CC[C@H](NC(=O)CCCCCCCCCCCCCCCCC(=O)O)C(=O)O)NC(=O)[C@H](CCC(=O)O)NC(=O)[C@@H]1CCCN1C(=O)[C@H](C)NC(=O)CC(C)C)[C@@H](C)O)C(=O)N[C@@H](CCC(N)=O)C(=O)N[C@@H](CCCNC(=N)N)C(=O)N[C@@H](Cc1ccc(O)cc1)C(=O)N[C@@H](Cc1ccc(O)cc1)C(=O)N[C@H](C(=O)N[C@@H](CO)C(=O)N[C@@H](CC(C)C)C(=O)N[C@@H](CCCNC(=N)N)C(=O)N[C@@H](Cc1c[nH]cn1)C(=O)N[C@@H](Cc1ccc(O)cc1)C(=O)N[C@@H](Cc1ccc(O)cc1)C(=O)N[C@@H](CC(N)=O)C(=O)N[C@@H](Cc1c[nH]c2ccccc12)C(=O)N[C@@H](CC(C)C)C(=O)N[C@H](C(=O)N[C@@H](CCCNC(=N)N)C(=O)N[C@@H](CCC(N)=O)C(=O)N[C@@H](CCCNC(=N)N)C(=O)N[C@@H](Cc1ccc(O)cc1)C(N)=O)[C@@H](C)O)C(C)C [Compound 28, N{alpha-4}-(3-methylbutanoyl)-N{epsilon-7}-(6-[(4S)-4-carboxy-4-(17-carboxyheptadecanamido)butanamido]hexanoyl)[4A,7K,9P,13T,17I,18Q,22V,28Y,30W,31L]-hPYY(4-36)] |
| 3.83 | 0.2 | >10.0 | CC[C@H](C)[C@H](NC(=O)[C@H](CCC(=O)O)NC(=O)[C@H](CCC(=O)O)NC(=O)[C@@H]1CCCN1C(=O)[C@H](CCC(=O)O)NC(=O)[C@H](C)NC(=O)[C@H](C)NC(=O)[C@H](C)NC(=O)[C@H](CCC(=O)O)NC(=O)[C@@H]1CCCN1C(=O)[C@H](CCCCNC(=O)CCCCCNC(=O)CC[C@H](NC(=O)CCCCCCCCCCCCCCCCC(=O)O)C(=O)O)NC(=O)[C@H](CCC(=O)O)NC(=O)[C@@H]1CCCN1C(=O)[C@H](C)NC(=O)CC(C)C)C(=O)N[C@@H](CCC(N)=O)C(=O)N[C@@H](CCCNC(=N)N)C(=O)N[C@@H](Cc1ccc(O)cc1)C(=O)N[C@@H](Cc1ccc(O)cc1)C(=O)N[C@H](C(=O)N[C@@H](C)C(=O)N[C@@H](CC(C)C)C(=O)N[C@@H](CCCNC(=N)N)C(=O)N[C@@H](Cc1c[nH]cn1)C(=O)N[C@@H](Cc1ccc(O)cc1)C(=O)N[C@@H](Cc1ccc(O)cc1)C(=O)N[C@@H](CC(N)=O)C(=O)N[C@@H](Cc1c[nH]c2ccccc12)C(=O)N[C@@H](CC(C)C)C(=O)N[C@H](C(=O)N[C@@H](CCCNC(=N)N)C(=O)N[C@@H](CCC(N)=O)C(=O)N[C@@H](CCCNC(=N)N)C(=O)N[C@@H](Cc1ccc(O)cc1)C(N)=O)[C@@H](C)O)C(C)C [Compound 135, N{alpha-4}-(3-methylbutanoyl)-N{epsilon-7}-(6-[(4S)-4-carboxy-4-(17-carboxyheptadecanamido)butanamido]hexanoyl)-[4A,7K,9E,10A,11A,13E,17I,18Q,22V,23A,28Y,30W,31L]-hPYY(4-36)] (Isovaleryl-APEK([Ahx-γGlu-C18 diacid])PEAAAEPEEIQRYYVALRHYYNWLTRQRY-NH2) |
